Data: ChEMBL document CHEMBL1144222, “Distinctive molecular inhibition mechanisms for selective inhibitors of human 11beta-hydroxysteroid dehydrogenase type 1” (Bioorg Med Chem, 2008)

Molecular target: 11-beta-hydroxysteroid dehydrogenase 1 (Homo sapiens, UniProt P28845)
Experiment: Inhibition of FLAG tagged human recombinant 11beta-HSD1 reductase activity expressed in Trichoplusia ni Hi5 cells
Assay type: cell-based, BTI-TN-5B1-4

Chain of 11-beta-hydroxysteroid dehydrogenase 1 (P28845 whole entry): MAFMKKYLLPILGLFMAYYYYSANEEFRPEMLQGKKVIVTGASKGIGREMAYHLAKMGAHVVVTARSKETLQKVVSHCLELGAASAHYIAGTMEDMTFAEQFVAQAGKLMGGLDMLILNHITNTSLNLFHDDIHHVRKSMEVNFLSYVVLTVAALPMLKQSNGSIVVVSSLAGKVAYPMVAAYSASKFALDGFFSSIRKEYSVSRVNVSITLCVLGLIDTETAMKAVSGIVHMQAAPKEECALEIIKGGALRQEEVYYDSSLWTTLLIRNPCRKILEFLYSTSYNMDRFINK

- IC50: 1.6 nM
SMILES: CC(C)n1c(-c2ccc(OC(F)(F)F)cc2)nnc1C1(c2ccc(F)cc2)CC1
